Marks after values point to notes of the source that are not given here.
Columns and labels:
WT-HMBS [1] = molecular target: T1, WT-HMBS (Homo sapiens, UniProt P08397); assay: Steady-state enzyme kinetics of HMBS (KM, Vmax); assay type: biochemical; settings: for Effect on steady-state enzyme kinetics of HMBS: 84 μM compound; for Vmax: variable PBG (0-1 mM), 37° C.
T1 construct: Full-length HMBS was cloned into pET-28a(+)-TEV vector and transformed into BL21 (DE3) cells for expression; 6xHis (N, cleaved yes); TEV protease cleavage site (N, cleaved yes); made in house; host or cells: E. coli BL21 (DE3)
T1 sequence (P08397 1-361): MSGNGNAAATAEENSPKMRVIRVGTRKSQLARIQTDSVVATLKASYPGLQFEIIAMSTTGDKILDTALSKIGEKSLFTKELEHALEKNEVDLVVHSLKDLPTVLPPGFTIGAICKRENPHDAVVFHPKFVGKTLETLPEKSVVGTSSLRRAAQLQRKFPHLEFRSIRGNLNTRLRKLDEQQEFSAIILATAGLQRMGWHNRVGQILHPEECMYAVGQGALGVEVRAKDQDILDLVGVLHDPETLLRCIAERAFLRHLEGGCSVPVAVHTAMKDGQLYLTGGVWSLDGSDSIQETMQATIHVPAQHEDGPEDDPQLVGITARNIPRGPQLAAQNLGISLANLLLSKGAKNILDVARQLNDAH
Description: The effect of the compounds on the stability of HMBS activity was assayed by pre-incubating the HMBS (4-5 μg) in 50 mM HEPES pH 8.2, 84 μM compound and 2% DMSO for 20 min at 70° C., and then placed on ice for 5 min. The enzymatic activity at 37° C. was subsequently measured as reported previously (Bustad et al., Bioscience reports 2013; 3 3(4)). Controls without compound but with equal concentration of DMSO were included. The remaining activity in the presence of compounds was normalized relative to DMSO-control (relative activity). […] USA, www.graphpad.com.
(§1) Limited tryptic proteolysis was also applied to compound BG-1. Proteolysis of WT-HMBS provided three major bands with relative content 34.5±0.3%, 14.7±0.8% and 50.9±0.5%, corresponding to remaining full-length HMBS (˜42.5 kDa), and two fragments of ˜41.0 kDa and ˜31.5 kDa, respectively (FIG. 1). […] The effect of this compound at 84 μM on the steady-state enzyme kinetics of HMBS was then calculated (Table 2).

[2] = molecular target: T2, HMBS in HepG2 cells over-expressing HMBS (Homo sapiens, UniProt P08397); assay: HMBS protein level in WT-HMBS stably transfected HepG2 cells (western immunoblot); assay type: cell-based; settings: 0-168 μM compound, 2% DMSO, 24 h; quantitative western immunoblotting
T2 construct: expressed in transfected cells; host or cells: HepG2 (stably transfected, G418-selected)
T2 sequence (P08397 1-361): T1 sequence (P08397 1-361)
Description: The human hepatoma HepG2 cells were obtained from Leibniz-Institut DSMZ—Deutsche Sammlung von Mikroorganismen und Zellkulturen GmbH. Cells were maintained in RPMI 1640, GlutaMAX™ (Thermo Fisher Scientific) medium supplemented with 10% heat-inactivated fetal bovine serum and 1% penicillin-streptomycin (Thermo Fisher Scientific) in a humidified incubator with 5% CO2 at 37° C. HMBS cDNA was inserted into the pcDNA3.1(+) cloning vector (Thermo Fisher Scientific). The HepG2 cells were then transfected with the pcDNA3.1(+) vector containing HMBS using FuGENE®HD Transfection Reagent (Promega, Madison, Wis.) according to the manufacturer's recommendations. Stably transfected clones were selected for resistance to the neomycin analogue G418 (Thermo Fisher Scientific). WT-HMBS transfected HepG2 cells (2×10^6) were seeded and grown for 22 h before compounds were added to final concentrations of 0, 40, 84, 120 and 168 μM in 2% DMSO. Cells were harvested after 24 h and analyzed as described below. […]
Cell lysate samples (20 μg total protein) were separated by electrophoresis and subsequently transferred to a PVDF transfer membrane (Bio-Rad). […] Chemiluminescence of secondary Ab-HRP conjugates was elicited using Luminata™ Crescendo Western HRP Substrate (Merck Millipore, Burlington, Mass.), imaged with Gel Doc™ XR+ (Bio-Rad) and quantified using Image Lab software (Bio-Rad). […]

WT-HMBS [3] = molecular target: T1, WT-HMBS; assay: DSF thermal upshift (ΔTm) of HMBS; assay type: binding
Description: Compounds BG-2, BG-3 and BG-4 were tested on recombinant WT-HMBS using DSF and tryptic proteolysis.

WT-HMBS [4] = molecular target: T1, WT-HMBS; assay: Limited proteolysis by trypsin; assay type: biochemical; settings: 84 μM compound; for Protection against tryptic proteolysis: 2% DMSO
Description: Limited proteolysis by trypsin was performed at 37° C. in 20 mM HEPES, 150 mM NaCl, 2% DMSO, pH 8.2, with 0.15 μg/μl HMBS in the absence (DMSO-control) or presence of 84 μM compound and 2% DMSO. The proteolysis was initiated by adding 1 μg/ml TPCK-treated trypsin (Sigma-Aldrich). After 30 min, aliquots were removed and transferred to Laemmli loading buffer containing 2 μg/ml soybean trypsin inhibitor. Samples resolved by electrophoresis with 10% Mini-Protean® TGX™ gels (Bio-Rad Laboratories, Inc.) were analyzed using the Image Lab™ software (Bio-Rad Laboratories, Inc.). The unpaired t-test (two tailed) was performed using GraphPad Prism.
as §1

Row | SMILES | Effect on steady-state enzyme kinetics of HMBS (WT-HMBS [1]) | Vmax (WT-HMBS [1]; 84 μM compound in 2% DMSO, DMSO control 61 ± 2) [nmol/min/mg] | Relative amount of HMBS in HepG2 cells [2] | ΔTm at 122 µM (WT-HMBS [3]; thermal upshift at y = 0.5 in scaled fluorescence curves, average compound concentration 122 μM (2% DMSO)) [°C] | Protection against tryptic proteolysis (WT-HMBS [4]; remaining full-length HMBS relative to DMSO) | Protection against proteolysis (WT-HMBS [4]; limited tryptic proteolysis) | Vmax (WT-HMBS [1]; Table 3, 84 μM compound with 2% DMSO, control 61 ± 2) [nmol/min/mg] | ΔTm at 122 µM (WT-HMBS [3]; Table 3, average compound concentration 122 μM (2% DMSO)) [°C] | Protection against tryptic proteolysis (WT-HMBS [4]; Table 3)
1 | O=Cc1cc(Cc2ccccc2Cl)cc([N+](=O)[O-])c1O [BG-1] | reduction in both KM and Vmax | 56 ± 1 | increasing relative amount of HMBS with increasing concentration | 1.6 | ++** (++, 10% remaining full-length HMBS relative to DMSO.) | exhibited protection against proteolysis |  |  | 
2 | O=C(c1ccccc1)c1ccc(Cl)c([N+](=O)[O-])c1 [BG-2] | weak mixed inhibitory effect |  | increased the HMBS protein levels similarly to BG-1 |  |  |  | 54 ± 2 | 4.9 | +* (+, >4%)

— patent US20230225991A1, “COMPOUNDS FOR USE IN THE TREATMENT OF ACUTE INTERMITTENT PORPHYRIA” (VESTLANDETS INNOVASJONSSELSKAP AS, priority 2019, published 2023)
